Test results from ChEMBL document CHEMBL1201862, “PubChem BioAssay data set” (2004).
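A five-concentration, 48-hour dose response in 96-well plates underlies each endpoint, interpolated linearly between surrounding concentrations. The concentration for 50% growth inhibition is given as GI50.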 Calls of active or inactive are those of the source. No stated cut-off is given here; in the data, active = GI50 up to about 1.1 µM and inactive = higher.

Key:
Test in all cases: inhibition of tumour cell growth, NCI panel, 48 h
[1] = system: K562
[2] = system: RPMI-8226
[3] = system: ACHN
[4] = system: EKVX
[5] = system: HCT-116
[6] = system: SF-539
[7] = system: COLO 205
[8] = system: MDA-MB-435
[9] = system: HOP-92
[10] = system: SF-268
[11] = system: TK-10
[12] = system: OVCAR-8
[13] = system: CCRF-CEM
[14] = system: NCI-H226
[15] = system: HT-29
[16] = system: RXF 393
[17] = system: PC-3
[18] = system: CAKI-1
[19] = system: SK-OV-3
[20] = system: SK-MEL-2

SMILES | GI50 [1] | GI50 [2] | GI50 [3] | GI50 [4] | GI50 [5] | GI50 [6] | GI50 [7] | GI50 [8] | GI50 [9] | GI50 [10] | GI50 [11] | GI50 [12] | GI50 [13] | GI50 [14] | GI50 [15] | GI50 [16] | GI50 [17] | GI50 [18] | GI50 [19] | GI50 [20]
COc1c2ccoc2c(OC)c2oc(=O)ccc12 [ISOPIMPINELLIN] | > 100 µM (inactive) | > 100 µM (inactive) | > 100 µM (inactive) | 70.1 µM (inactive) | > 100 µM (inactive) | > 100 µM (inactive) | > 100 µM (inactive) | > 100 µM (inactive) | 1.99 µM (inactive) | > 100 µM (inactive) | > 100 µM (inactive) | > 100 µM (inactive) | > 100 µM (inactive) | 99.1 µM (inactive) | > 100 µM (inactive) | 45.8 µM (inactive) | > 100 µM (inactive) | 50.5 µM (inactive) | – | –
O=C(Cc1ccc(Cl)cc1)Nc1ccc2oc(-c3ccccc3)nc2c1 | > 100 µM (inactive) | > 100 µM (inactive) | > 100 µM (inactive) | 30.8 µM (inactive) | > 100 µM (inactive) | 35.2 µM (inactive) | > 100 µM (inactive) | > 100 µM (inactive) | > 100 µM (inactive) | 74 µM (inactive) | > 100 µM (inactive) | 32.7 µM (inactive) | > 100 µM (inactive) | 27.6 µM (inactive) | > 100 µM (inactive) | > 100 µM (inactive) | > 100 µM (inactive) | > 100 µM (inactive) | 77.8 µM (inactive) | 89.1 µM (inactive)
CC1(C)S[C@@H]2[C@H](N3C(=O)c4ccccc4C3=O)CN2[C@H]1NC(=O)N[C@@H]1N2C[C@@H](N3C(=O)c4ccccc4C3=O)[C@H]2SC1(C)C | > 100 µM (inactive) | > 100 µM (inactive) | > 100 µM (inactive) | – | > 100 µM (inactive) | 55.1 µM (inactive) | > 100 µM (inactive) | > 100 µM (inactive) | 42.2 µM (inactive) | 28.9 µM (inactive) | 77.1 µM (inactive) | 58.3 µM (inactive) | > 100 µM (inactive) | > 100 µM (inactive) | > 100 µM (inactive) | 45.3 µM (inactive) | > 100 µM (inactive) | > 100 µM (inactive) | 80.9 µM (inactive) | > 100 µM (inactive)
O=Cc1ccc(-c2cc(C=O)c(-c3cccs3)[nH]2)s1 | 25.9 µM (inactive) | 53.2 µM (inactive) | 41.4 µM (inactive) | 40 µM (inactive) | 22.8 µM (inactive) | 24.4 µM (inactive) | 25.1 µM (inactive) | 25.6 µM (inactive) | 32.7 µM (inactive) | > 75 µM (inactive) | 24.4 µM (inactive) | 21.4 µM (inactive) | 20 µM (inactive) | 4.76 µM (inactive) | 25.1 µM (inactive) | 35.6 µM (inactive) | 35.6 µM (inactive) | 9.4 µM (inactive) | 48.4 µM (inactive) | 46.2 µM (inactive)
CC1CC[C@@]2(OC1)O[C@H]1[C@H](O)[C@H]3[C@@H]4CC[C@H]5C[C@@H](OC6OC(CO)C(OC7OC(CO)C(O)C(OC8OCC(O)C(O)C8O)C7OC7OC(CO)C(O)C(O)C7OC7OC(CO)C(O)C(O)C7O)C(O)C6O)[C@H](O)C[C@]5(C)[C@H]4CC[C@]3(C)[C@H]1[C@@H]2C (stereo not given in full) | 1.77 µM (inactive) | 2.15 µM (inactive) | > 10 µM (inactive) | > 10 µM (inactive) | 4.59 µM (inactive) | 9.46 µM (inactive) | > 10 µM (inactive) | > 10 µM (inactive) | > 10 µM (inactive) | > 10 µM (inactive) | > 10 µM (inactive) | > 10 µM (inactive) | 0.942 µM (active) | > 10 µM (inactive) | > 10 µM (inactive) | > 10 µM (inactive) | 2.7 µM (inactive) | > 10 µM (inactive) | – | > 10 µM (inactive)
CCN(CC)C(=S)SNCc1ccc(S(N)(=O)=O)cc1 | > 100 µM (inactive) | 2.93 µM (inactive) | 15.3 µM (inactive) | 20.9 µM (inactive) | 13.2 µM (inactive) | 14.5 µM (inactive) | 14.6 µM (inactive) | 19.5 µM (inactive) | 22.5 µM (inactive) | 12.9 µM (inactive) | 25 µM (inactive) | 14.4 µM (inactive) | – | > 38.9 µM (inactive) | 8.47 µM (inactive) | 18.1 µM (inactive) | 13.1 µM (inactive) | 14.7 µM (inactive) | 40.1 µM (inactive) | 16.6 µM (inactive)
CC1(CCCCO)C=CC(S(=O)(=O)c2ccccc2)CC1 (stereo not given) | 3.24 µM (inactive) | 1.56 µM (inactive) | 5.57 µM (inactive) | 3.1 µM (inactive) | 4.15 µM (inactive) | 7.91 µM (inactive) | 4.37 µM (inactive) | 9.42 µM (inactive) | 2.84 µM (inactive) | 1.36 µM (inactive) | 6.97 µM (inactive) | 10.5 µM (inactive) | 2.67 µM (inactive) | 2.43 µM (inactive) | 1.82 µM (inactive) | 5.45 µM (inactive) | 4.11 µM (inactive) | 10.7 µM (inactive) | 10.8 µM (inactive) | 11.1 µM (inactive)
